Data on 16 compounds can be found in US20160122342A1, “ENHANCER OF ZESTE HOMOLOG 2 INHIBITORS” (GLAXOSMITHKLINE INTELLECTUAL PROPERTY (NO.2) LIMITED, priority 2013, published 2016).

Counter-ions that a name gives are not always drawn.

In the first assay the target is T1, EZH2 within the PRC2 complex (Homo sapiens, UniProt Q15910).
T1 construct: FLAG; made in house; host or cells: Sf9 cells
T1 sequence (Q15910 whole entry): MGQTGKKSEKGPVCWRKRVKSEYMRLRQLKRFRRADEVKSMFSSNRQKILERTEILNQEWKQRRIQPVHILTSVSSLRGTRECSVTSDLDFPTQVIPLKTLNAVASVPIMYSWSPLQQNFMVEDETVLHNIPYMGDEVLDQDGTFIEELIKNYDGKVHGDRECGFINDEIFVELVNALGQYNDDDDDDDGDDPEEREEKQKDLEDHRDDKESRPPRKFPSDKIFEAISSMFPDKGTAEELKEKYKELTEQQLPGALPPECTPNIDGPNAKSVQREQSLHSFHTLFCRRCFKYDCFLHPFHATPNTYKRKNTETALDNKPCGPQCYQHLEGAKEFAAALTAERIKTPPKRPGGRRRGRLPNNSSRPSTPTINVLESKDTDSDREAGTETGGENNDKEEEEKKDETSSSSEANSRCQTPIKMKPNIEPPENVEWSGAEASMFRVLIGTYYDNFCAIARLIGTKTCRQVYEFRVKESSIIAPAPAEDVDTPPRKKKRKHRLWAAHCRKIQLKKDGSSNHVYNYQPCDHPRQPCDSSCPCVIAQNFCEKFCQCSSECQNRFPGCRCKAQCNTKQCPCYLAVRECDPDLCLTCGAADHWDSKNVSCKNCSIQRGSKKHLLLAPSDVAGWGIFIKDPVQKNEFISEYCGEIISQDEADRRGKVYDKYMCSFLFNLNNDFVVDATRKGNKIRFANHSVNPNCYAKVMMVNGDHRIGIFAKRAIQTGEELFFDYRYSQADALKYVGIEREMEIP
T1 sequence (O75530 whole entry partner): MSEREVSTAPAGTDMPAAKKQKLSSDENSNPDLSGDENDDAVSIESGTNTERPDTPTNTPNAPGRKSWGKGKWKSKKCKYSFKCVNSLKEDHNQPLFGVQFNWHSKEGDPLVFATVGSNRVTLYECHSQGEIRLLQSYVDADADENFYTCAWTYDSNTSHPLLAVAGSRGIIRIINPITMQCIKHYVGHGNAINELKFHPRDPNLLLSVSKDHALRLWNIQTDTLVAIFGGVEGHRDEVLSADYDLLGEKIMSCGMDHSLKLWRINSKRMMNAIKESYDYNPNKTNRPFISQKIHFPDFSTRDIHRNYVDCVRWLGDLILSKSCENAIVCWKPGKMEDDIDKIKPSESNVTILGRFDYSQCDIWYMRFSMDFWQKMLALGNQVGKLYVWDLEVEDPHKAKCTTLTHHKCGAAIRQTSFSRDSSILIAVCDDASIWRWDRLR
T1 sequence (Q15022 whole entry partner): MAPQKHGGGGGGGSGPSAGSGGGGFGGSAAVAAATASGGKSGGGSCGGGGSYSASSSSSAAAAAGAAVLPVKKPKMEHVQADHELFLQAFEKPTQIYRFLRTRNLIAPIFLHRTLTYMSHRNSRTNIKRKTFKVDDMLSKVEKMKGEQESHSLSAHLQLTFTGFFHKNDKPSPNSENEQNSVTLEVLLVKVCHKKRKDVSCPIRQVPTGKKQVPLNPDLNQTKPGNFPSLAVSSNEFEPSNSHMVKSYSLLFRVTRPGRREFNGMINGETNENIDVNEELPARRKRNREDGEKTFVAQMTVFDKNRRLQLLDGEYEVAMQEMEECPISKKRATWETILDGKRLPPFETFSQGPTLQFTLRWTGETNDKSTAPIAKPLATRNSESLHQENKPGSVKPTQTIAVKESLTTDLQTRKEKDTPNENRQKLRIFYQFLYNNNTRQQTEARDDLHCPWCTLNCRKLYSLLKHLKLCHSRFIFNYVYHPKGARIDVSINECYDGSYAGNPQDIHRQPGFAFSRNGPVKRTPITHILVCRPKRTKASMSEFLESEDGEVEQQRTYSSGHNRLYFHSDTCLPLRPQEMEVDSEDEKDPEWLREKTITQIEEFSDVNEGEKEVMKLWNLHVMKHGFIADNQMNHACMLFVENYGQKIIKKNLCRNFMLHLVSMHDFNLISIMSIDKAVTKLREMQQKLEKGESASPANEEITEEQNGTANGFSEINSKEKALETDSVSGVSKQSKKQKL
T1 sequence (Q09028 whole entry partner): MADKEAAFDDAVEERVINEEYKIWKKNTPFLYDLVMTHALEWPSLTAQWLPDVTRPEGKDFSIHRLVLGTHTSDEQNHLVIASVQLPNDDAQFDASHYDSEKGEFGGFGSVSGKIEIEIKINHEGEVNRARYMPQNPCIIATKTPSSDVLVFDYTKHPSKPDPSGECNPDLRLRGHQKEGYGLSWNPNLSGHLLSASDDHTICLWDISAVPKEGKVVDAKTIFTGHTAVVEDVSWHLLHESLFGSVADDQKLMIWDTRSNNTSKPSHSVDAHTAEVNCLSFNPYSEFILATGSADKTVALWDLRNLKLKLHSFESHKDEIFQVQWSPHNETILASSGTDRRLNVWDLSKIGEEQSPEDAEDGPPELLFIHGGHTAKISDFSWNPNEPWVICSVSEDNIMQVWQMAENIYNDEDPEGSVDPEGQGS
T1 sequence (Q6ZN18 whole entry partner): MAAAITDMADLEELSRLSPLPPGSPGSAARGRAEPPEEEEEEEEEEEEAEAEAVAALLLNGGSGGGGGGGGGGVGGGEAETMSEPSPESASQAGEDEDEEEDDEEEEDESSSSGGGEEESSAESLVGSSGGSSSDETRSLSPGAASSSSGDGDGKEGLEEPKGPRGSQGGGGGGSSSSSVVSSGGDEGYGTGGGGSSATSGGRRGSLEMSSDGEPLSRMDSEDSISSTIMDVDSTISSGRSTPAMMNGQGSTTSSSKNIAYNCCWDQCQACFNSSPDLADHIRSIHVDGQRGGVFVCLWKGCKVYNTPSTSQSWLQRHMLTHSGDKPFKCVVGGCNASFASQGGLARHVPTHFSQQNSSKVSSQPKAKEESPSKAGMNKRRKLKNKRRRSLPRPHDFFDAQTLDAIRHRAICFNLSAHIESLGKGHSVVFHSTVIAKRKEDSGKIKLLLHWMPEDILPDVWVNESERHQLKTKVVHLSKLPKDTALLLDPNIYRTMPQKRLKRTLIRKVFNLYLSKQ
Nature of the assay: Assay Protocol 1: EZH2 methyltransferase scintillation proximity assay, mononucleosome substrate. The class given is biochemical.
Settings: not given
As to the method: Compounds contained herein were evaluated for their ability to inhibit the methyltransferase activity of EZH2 within the PRC2 complex. […] Mononucleosomes were captured on SPA beads and the resulting signal is read on a ViewLux plate reader. • 1. Prepare 10 mM stock of compounds from solid in 100% DMSO. • 2. […] Dispense 100 nL of compound from the dilution plate into reaction plates (Grenier Bio-One, 384-well, Cat#784075). Prepare the following solutions: • 1. 50 mM Tris-HCl, pH 8: Per 1 L of base buffer, combine 1 M Tris-HCl, pH 8 (50 mL) and distilled water (950 mL). • 2. 1× Assay Buffer: […] SPA Bead Suspension: […] Per 10 mL of 2× Substrate Solution, combine 1× Assay Buffer (9728.55 uL), 800 ug/mL mononucleosomes (125 uL), 1 mM cold SAM (4 uL), and 7.02 uM 3H-SAM (142.45 uL; 0.55 mCi/mL) to provide a final concentration of 5 ug/mL nucleosomes, 0.2 uM cold SAM, and 0.05 uM 3H-SAM. • 6. 2.67× Quench/Bead Mixture: Per 10 mL of 2.67× Quench/Bead Mixture, combine ddH2O (9358 uL), 10 mM cold SAM (267 uL), 40 mg/mL Bead Suspension (375 uL) to provide a final concentration of 100 uM cold SAM and 0.5 mg/mL SPA beads. • 1. Dispense 100 nL/well of 100× Compound to test wells (as noted above). • 2. […] • 1. Dispense 5 uL/well of 1× Assay Buffer to column 18 (low control reactions). • 2. Dispense 5 uL/well of 2× Enzyme Solution to columns 1-17, 19-24. • 3. Spin assay plates for ˜1 minute at 500 rpm. • 4. Stack the assay plates, covering the top plate. • 5. Incubate the compound/DMSO with the enzyme for 30 minutes at room temperature. • 6. Dispense 5 uL/well of 2× Substrate Solution to columns 1-24. • 7. Spin assay plates for ˜1 minute at 500 rpm. • 8. Stack the assay plates, covering the top plate. • 9. Incubate the assay plates at room temperature for 1 hour. • 1. Dispense 5 uL/well of the 3× Quench/Bead Mixture to columns 1-24. • 2. Seal the top of each assay plate with adhesive TopSeal. • 3. Spin assay plates for ˜1 minute at 500 rpm. • 4. […] • 1. Read the assay plates on the Viewlux Plate Reader utilizing the 613 nm emission filter with a 300 s read time. Reagent addition can be done manually or with automated liquid handler. The final DMSO concentration in this assay is 1%. The positive control is in column 6; negative control is in column 18. Final starting concentration of compounds is 100 μM. Percent inhibition was calculated relative to the DMSO control for each compound concentration and the resulting values were fit using standard IC50 fitting parameters within the ABASE data fitting software package.
For orientation: In a scintillation proximity assay essentially only radioactivity close to the scintillant gives light.
By IC50 is commonly meant the concentration at which inhibition is half-maximal. As for `Cc1cc2c(c(=O)[nH]1)CNC(=O)c1cc(Cl)cc(O[C@H]3CC[C@H](N)CC3)c1C/C=C\CC2` [Example 4, (Z)-10-((trans-4-aminocyclohexyl)oxy)-12-chloro-3-methyl-5,6,15,16-tetrahydrobenzo[c]pyrido[4,3-j][1]azacyclododecine-1,14(2H,9H)-dione hydrochloride], half-maximal inhibition (IC50) required 2510 nM.

Still in this assay, the particulars now being: Assay Protocol 1; SPA, 3H-SAM, Histone H3 of mononucleosome purified from HeLa cells; 5-member PRC2 complex; read-out: EZH2 IC50.
With `CCN(c1cccc2c1C/C=C\CCc1cc(C)[nH]c(=O)c1CNC2=O)C1CCOCC1` [Example 7, (Z)-10-(ethyl(tetrahydro-2H-pyran-4-yl)amino)-3-methyl-5,6,15,16-tetrahydrobenzo[c]pyrido[4,3-j][1]azacyclododecine-1,14(2H,9H)-dione hydrochloride, 0.10 1,4-dioxane solvate], the IC50 is 1590 nM.

On to `CCN(c1cccc2c1C/C=C/CCc1cc(C)[nH]c(=O)c1CN(CCO)C2=O)C1CCOCC1` [Example 29, (E)-10-(ethyl(tetrahydro-2H-pyran-4-yl)amino)-15-(2-hydroxyethyl)-3-methyl-5,6,15,16-tetrahydrobenzo[c]pyrido[4,3-j][1]azacyclododecine-1,14(2H,9H)-dione], for which the IC50 amounted to 1260 nM.

As to `CCN(c1cccc2c1CCCC(CO)Cc1cc(C)[nH]c(=O)c1CNC2=O)C1CCOCC1` (stereo not shown) [Example 27, 10-(ethyl(tetrahydro-2H-pyran-4-yl)amino)-6-(hydroxymethyl)-3-methyl-6,7,8,9,15,16-hexahydrobenzo[c]pyrido[4,3-j][1]azacyclododecine-1,14(2H,5H)-dione], the IC50 was 316 nM.

`CCN(c1cccc2c1CCCCC(C)c1cc(C)[nH]c(=O)c1CNC2=O)C1CCOCC1` (stereo not shown) [Example 24, 10-(ethyl(tetrahydro-2H-pyran-4-yl)amino)-3,5-dimethyl-6,7,8,9,15,16-hexahydrobenzo[c]pyrido[4,3-j][1]azacyclododecine-1,14(2H,5H)-dione]: the IC50 was determined as 631 nM.

As for `CCN(c1cccc2c1C/C=C\COc1cc(C)[nH]c(=O)c1CNC2=O)C1CCOCC1` [Example 13, (Z)-10-(ethyl(tetrahydro-2H-pyran-4-yl)amino)-3-methyl-6,9,15,16-tetrahydro-1H-benzo[g]pyrido[4,3-b][1,5]oxaazacyclododecine-1,14(2H)-dione], the IC50 was 794 nM.

As to `CCN(c1cccc2c1CCCCOCc1cc(C)[nH]c(=O)c1CNC2=O)C1CCOCC1` [Example 11, 11-(ethyl(tetrahydro-2H-pyran-4-yl)amino)-3-methyl-7,8,9,10,16,17-hexahydrobenzo[h]pyrido[4,3-c][1,6]oxaazacyclotridecine-1,15(2H,5H)-dione], the IC50 was 501 nM.

On to `COc1cc(Cl)cc2c1C/C=C/CCc1cc(C)[nH]c(=O)c1CNC2=O` [Example 15, (E)-12-chloro-10-methoxy-3-methyl-5,6,15,16-tetrahydrobenzo[c]pyrido[4,3-j][1]azacyclododecine-1,14(2H,9H)-dione], for which the IC50 came to 501 nM.

As to `CCN(c1cccc2c1C/C=C/CN(C)Cc1cc(C)[nH]c(=O)c1CNC2=O)C1CCOCC1` [Example 10, (E)-11-(ethyl(tetrahydro-2H-pyran-4-yl)amino)-3,6-dimethyl-5,6,7,10,16,17-hexahydro-1H-benzo[h]pyrido[4,3-c][1,6]diazacyclotridecine-1,15(2H)-dione], the IC50 was 1000 nM.

Regarding `CCN(c1cccc2c1CCCC(O)CCc1cc(C)[nH]c(=O)c1CNC2=O)C1CCOCC1` (stereo not shown) [Example 28, 11-(ethyl(tetrahydro-2H-pyran-4-yl)amino)-7-hydroxy-3-methyl-5,6,7,8,9,10,16,17-octahydro-1H-benzo[c]pyrido[4,3-k][1]azacyclotridecine-1,15(2H)-dione], the IC50 amounted to 631 nM.

Regarding `CCN(c1cccc2c1C/C=C/C(CO)Cc1cc(C)[nH]c(=O)c1CNC2=O)C1CCOCC1` (stereo not shown) [Example 25, (E)-10-(ethyl(tetrahydro-2H-pyran-4-yl)amino)-6-(hydroxymethyl)-3-methyl-5,6,15,16-tetrahydrobenzo[c]pyrido[4,3-j][1]azacyclododecine-1,14(2H,9H)-dione], the IC50 was 158 nM.

As to `CCN(c1cc(Cl)cc2c1C/C=C\CCc1cc(C)[nH]c(=O)c1CNC2=O)C1CCOCC1` [Example 16, (Z)-12-chloro-10-(ethyl(tetrahydro-2H-pyran-4-yl)amino)-3-methyl-5,6,15,16-tetrahydrobenzo[c]pyrido[4,3-j][1]azacyclododecine-1,14(2H,9H)-dione hydrochloride], the IC50 amounted to 501 nM.

Take `CCN(c1cccc2c1C/C=C\C(CO)Cc1cc(C)[nH]c(=O)c1CNC2=O)C1CCOCC1` (stereo not shown) [Example 26, (Z)-10-(ethyl(tetrahydro-2H-pyran-4-yl)amino)-6-(hydroxymethyl)-3-methyl-5,6,15,16-tetrahydrobenzo[c]pyrido[4,3-j][1]azacyclododecine-1,14(2H,9H)-dione]: the IC50 worked out at 12600 nM.

Take `CCN(c1cccc2c1C/C=C\CC(C)c1cc(C)[nH]c(=O)c1CNC2=O)C1CCOCC1` (stereo not shown) [Example 22, (Z)-10-(ethyl(tetrahydro-2H-pyran-4-yl)amino)-3,5-dimethyl-5,6,15,16-tetrahydrobenzo[c]pyrido[4,3-j][1]azacyclododecine-1,14(2H,9H)-dione]: the IC50 came to 6310 nM.

For the compound `Cc1cc2c(c(=O)[nH]1)CNC(=O)c1cc(Cl)cc(O[C@H]3CC[C@H](N(C)C)CC3)c1C/C=C\CC2` [Example 5, (Z)-12-chloro-10-((trans-4-(dimethylamino)cyclohexyl)oxy)-3-methyl-5,6,15,16-tetrahydrobenzo[c]pyrido[4,3-j][1]azacyclododecine-1,14(2H,9H)-dione], the IC50 was found to be 2510 nM.

On to `CCN(c1cccc2c1C/C=C/CC(C)c1cc(C)[nH]c(=O)c1CNC2=O)C1CCOCC1` (stereo not shown) [Example 23, (E)-10-(ethyl(tetrahydro-2H-pyran-4-yl)amino)-3,5-dimethyl-5,6,15,16-tetrahydrobenzo[c]pyrido[4,3-j][1]azacyclododecine-1,14(2H,9H)-dione], for which the IC50 was determined as 126 nM.
